The target in test [1] is D2 receptors from African Green monkey. The test is described as follows: D2 receptor binding (displacement of 3H-YM 09151-2). The note with it: COS cells with recombinant D2 receptors; 0.5 nM 3H-YM 09151-2; nonspecific binding with 1 mM spiperone. The method, then: (§1) Pellets of COS cells containing recombinantly produced D2 or D3 receptors from African Green monkey were used for the assays. The sample is homogenized in 100 volumes (w/vol) of 0.05M Tris HCI buffer at 4° C and pH 7.4. The sample is then centfifuged at 30,000×g and resuspended and rehomogenized. The sample is then centdfuged as described and the final tissue sample is frozen until use. The tissue is resuspended 1:20 (wt/vol) in 0.05M Tris HCl buffer containing 100 mM NaCl.
(§2) Incubations are carried out at 48° C and contain 0.4 ml of tissue sample, 0.5 nM ^3 H-YM 09151-2 and the compound of interest in a total incubation of 1.0 ml. Nonspecific binding is defined as that binding found in the presence of 1 mM spiperone; without further additions, nonspecific binding is less than 20% of total binding. The binding characteristics of representative compounds of the invention for D2 and D3 receptor subtypes are shown in Table 2 for rat striatal homogenates.
Background: Loss of bound radioactivity is the signal in a displacement assay; it reports binding, not function.

The target of test [2] is T1, D3 receptors from African Green monkey (Chlorocebus aethiops, UniProt P52703).
T1 construct: expressed in transfected cells; host or cells: COS cells
T1 sequence (P52703 whole entry): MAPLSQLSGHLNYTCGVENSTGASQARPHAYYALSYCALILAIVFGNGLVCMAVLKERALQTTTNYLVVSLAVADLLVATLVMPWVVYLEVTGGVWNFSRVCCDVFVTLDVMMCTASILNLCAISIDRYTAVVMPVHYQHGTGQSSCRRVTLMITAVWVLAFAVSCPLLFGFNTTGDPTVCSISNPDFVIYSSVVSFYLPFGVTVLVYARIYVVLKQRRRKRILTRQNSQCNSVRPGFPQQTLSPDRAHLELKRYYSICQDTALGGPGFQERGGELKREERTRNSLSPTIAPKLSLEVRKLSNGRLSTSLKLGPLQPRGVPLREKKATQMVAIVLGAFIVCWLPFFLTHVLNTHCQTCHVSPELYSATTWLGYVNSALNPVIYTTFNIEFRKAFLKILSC
The test is described as follows: D3 receptor binding (displacement of 3H-YM 09151-2). The note with it: COS cells with recombinant D3 receptors; 0.5 nM 3H-YM 09151-2; nonspecific binding with 1 mM spiperone. The method, then:
as §1, §2

Where a name gives a salt, the structure may show the parent alone. Bounds are passed on as bounds.

By Ki is commonly meant a dissociation constant, usually derived from enzyme kinetics or from competition with a known ligand.

In the case of `O=C(NCCCCN1CCN(c2nccc3ccccc23)CC1)c1ccc2c(c1)-c1ccccc1-2` [Compound 4, 1-(1-Isoquinolyl)-4-{4-[N-(1-biphenylene-2-carboxamido)]butyl}piperazine d ihydrochloride], the Ki in test [1] is greater than 100 nM; in test [2], 15 nM.

For `O=C(NCCCCN1CCN(c2cccc3ccccc23)CC1)c1ccc2c(c1)-c1ccccc1-2` [Compound 3, 1-(1-Napthyl)-4-{4-[N-(1-biphenylene-2-carboxamido)]butyl}piperazine dihydrochloride], the Ki in test [1] came out at 138 nM; in test [2], 3 nM.

For `COc1ccccc1N1CCN(CCCCNC(=O)c2ccc3c(c2)-c2ccccc2-3)CC1` [Compound 1, 1-(2-Methoxyphenyl)-4-{4-[N-(1-biphenylene-2-carboxamido)]butyl}piperazine], the values for the Ki in test [1] and in test [2] were 323 nM and 5 nM, respectively.

The values above are taken from patent US5703083A, “N-aminoalkyl-1-biphenylenyl-2-carboxamides; new dopamine receptor subtype specific ligands” (Neurogen Corporation, priority 1996, dated 1997).
